Measurements from article PMC7865145, “Identification of existing pharmaceuticals and herbal medicines as inhibitors of SARS-CoV-2 infection” (Proceedings of the National Academy of Sciences of the …, 2021).
Counter-ions that a name gives are not always drawn. Like-named read-outs stand apart in the source and are kept apart here.

Key:
[1] = test system: SARS-CoV-2 (hCoV-19/Taiwan/4/2020); test: microbe, parasite or virus in culture; format: cell-based; conditions: for block of viral infection in the cell-based assay (α-glucosidase inhibitors): tested conc. 100 μM (Fig. S4)
SARS-CoV-2 = test: Quantification of SARS-CoV-2 via antibody staining (viral NP protein) in Vero E6 cells; format: cell-based; conditions: viral titer by antinucleocapsid antibody
[2] = molecular target: Papain-like protease (nsp3) of SARS-CoV-2 (Severe acute respiratory syndrome coronavirus 2, UniProt P0DTD1); test: biochemical; format: biochemical; conditions: 100 uM, FRET-based enzymatic assay, 3 independent experiments, N.I. = no inhibition; for inhibition at 100 µM: read-out: Inhibition % at 100 uM of compounds, Papain-like protease (nsp3)
in vitro = conditions: African green monkey, CC50 (μM)
[3] = Vero E6, concentrations used in the screen (10, 3.3 and 1 μM)
[4] = 100 PFU of SARS-CoV-2 (multiplicity of infection 0.025) in Vero E6 cells
[5] = Severe acute respiratory syndrome coronavirus 2, Vero C1008, 100 PFU of SARS-CoV-2 (multiplicity of infection 0.025) in Vero E6 cells
[6] = Severe acute respiratory syndrome coronavirus 2, Vero C1008, minimal dose that showed antiinfective effect after virus challenge, incubation 72 h (D3), Vero E6, read-out: CPE (μM) D3
[7] = Severe acute respiratory syndrome coronavirus 2, Vero C1008, 72 h, read-out: CPE (μM) D3
[8] = Severe acute respiratory syndrome coronavirus 2, Vero C1008, 120 h, […], N.I. = no inhibition, dash = cytotoxicity was observed, read-out: CPE (μM) D5

COC(=O)N[C@H](C(=O)N1CCC[C@H]1c1nc(-c2ccc(-c3ccc(-c4c[nH]c([C@@H]5CCCN5C(=O)[C@@H](NC(=O)OC)C(C)C)n4)cc3)cc2)c[nH]1)C(C)C [daclatasvir]
inhibition against SARS-CoV-2 in the cell-based screen [1, 3]: none of these showed inhibition

CN1C[C@H](O)[C@@H](O)[C@H](O)[C@H]1CO [N-methyl-1-deoxynojirimycin]
block of viral infection in the cell-based assay (α-glucosidase inhibitors) ([1]; Vero E6): none was able to efficiently block the viral infection

CCCCc1oc2ccc(NS(C)(=O)=O)cc2c1C(=O)c1ccc(OCCCN(CCCC)CCCC)cc1 [Dronedarone 12, Dronedarone]
IC50 (SARS-CoV-2; [4]): 4.5 µM
IC50 (SARS-CoV-2; [5]): 4.51 µM
minimal effective concentration [1, 6]: 7.5 µM
CPE (μM) D5 ([1]; minimal dose that showed antiinfective effect after virus challenge, incubation 120 h (D5), Vero E6, N.I. = no inhibition, dash = cytotoxicity was observed): N.I.
Inhibition % at 100 uM of compounds, Papain-like protease (nsp3) [2]: significant inhibition
inhibition at 100 µM [2]: 78.6%
CC50 at 24 h (in vitro): 12.1 µM

Nc1ccn([C@H]2CC[C@@H](CO)O2)c(=O)n1 [zalcitabine]
inhibition against SARS-CoV-2 in the cell-based screen [1, 3]: no active compound was identified

CC(C)CN(C[C@@H](O)[C@H](Cc1ccccc1)NC(=O)O[C@H]1CCOC1)S(=O)(=O)c1ccc(N)cc1 [amprenavir]
inhibition against SARS-CoV-2 in the cell-based screen [1, 3]: none of these showed inhibition

Nc1nc2c(ncn2COCCO)c(=O)[nH]1 [acyclovir]
inhibition against SARS-CoV-2 in the cell-based screen [1, 3]: no active compound was identified

CC(=O)N[C@@H](C)C(=O)N[C@H](C(=O)N[C@@H](Cc1ccccc1)[C@@H](O)[C@H](O)[C@H](Cc1ccccc1)NC(=O)[C@@H](NC(=O)[C@H](C)NC(C)=O)C(C)C)C(C)C [JJS-0309]
inhibition against SARS-CoV-2 in the cell-based screen [1]: did not show any inhibition

CC(C)(C)C(=O)OCOP(=O)(COCCn1cnc2c(N)ncnc21)OCOC(=O)C(C)(C)C [adefovir dipivoxyl]
inhibition against SARS-CoV-2 in the cell-based screen [1, 3]: no active compound was identified

NC(=O)c1ncn([C@@H]2O[C@H](CO)[C@@H](O)[C@H]2O)n1 [ribavirin]
inhibition against SARS-CoV-2 in the cell-based screen [1, 3]: no active compound was identified

Nc1nc(NC2CC2)c2ncn([C@H]3C=C[C@@H](CO)C3)c2n1 [abacavir sulfate]
inhibition against SARS-CoV-2 in the cell-based screen [1, 3]: no active compound was identified

COC(=O)N[C@H](C(=O)N[C@@H](Cc1ccccc1)[C@@H](O)CN(Cc1ccc(-c2ccccn2)cc1)NC(=O)[C@@H](NC(=O)OC)C(C)(C)C)C(C)(C)C [atazanavir]
inhibition against SARS-CoV-2 in the cell-based screen [1, 3]: none of these showed inhibition

COc1ccc2cc1Oc1ccc(cc1)C[C@H]1c3c(cc4c(c3Oc3cc5c(cc3OC)CCN(C)[C@@H]5C2)OCO4)CCN1C [Cepharanthine 4, Cepharanthine]
IC50 (SARS-CoV-2; [5]): 2.8 µM
minimal effective concentration [1, 7]: 3.75 µM
minimal effective concentration [1, 8]: 7.5 µM
inhibition at 100 µM [2]: 31.9%
CC50 at 24 h (in vitro): 12.9 µM

CC(C)c1nc(CN(C)C(=O)N[C@H](C(=O)N[C@@H](Cc2ccccc2)C[C@H](O)[C@H](Cc2ccccc2)NC(=O)OCc2cncs2)C(C)C)cs1 [Ritonavir]
inhibition against SARS-CoV-2 in the cell-based screen [1, 3]: none of these showed inhibition

OCCN1C[C@H](O)[C@@H](O)[C@H](O)[C@H]1CO [miglitol]
block of viral infection in the cell-based assay (α-glucosidase inhibitors) ([1]; Vero E6): none was able to efficiently block the viral infection

CC(C)(C)NC(=O)N[C@H](C(=O)N1C[C@H]2[C@@H]([C@H]1C(=O)NC(CC1CCC1)C(=O)C(N)=O)C2(C)C)C(C)(C)C (stereo partly shown) [Boceprevir 2, Boceprevir]
IC50 (SARS-CoV-2; [4]): 50.1 µM
IC50 (SARS-CoV-2; [5]): > 50 µM
minimal effective concentration [1, 6]: 10 µM
minimal effective concentration ([1]; Severe acute respiratory syndrome coronavirus 2, Vero C1008, minimal dose that showed antiinfective effect after virus challenge, incubation 120 h (D5), Vero E6, N.I. = no inhibition, dash = cytotoxicity was observed, read-out: CPE (μM) D5): 10 µM
Inhibition % at 100 uM of compounds, Papain-like protease (nsp3) [2]: N.I.

OCC(CO)N[C@H]1C[C@](O)(CO)[C@@H](O)[C@H](O)[C@H]1O [voglibose]
block of viral infection in the cell-based assay (α-glucosidase inhibitors) ([1]; Vero E6): none was able to efficiently block the viral infection

CC(C)(C)NC(=O)[C@@H]1C[C@@H]2CCCC[C@@H]2CN1C[C@@H](O)[C@H](Cc1ccccc1)NC(=O)[C@H](CC(N)=O)NC(=O)c1ccc2ccccc2n1 [saquinavir mesylate]
inhibition against SARS-CoV-2 in the cell-based screen [1, 3]: none of these showed inhibition

Nc1ccn(C[C@@H](CO)OCP(=O)(O)O)c(=O)n1 [cidofovir]
inhibition against SARS-CoV-2 in the cell-based screen [1, 3]: no active compound was identified

CC(C)OC(=O)OCOP(=O)(CO[C@H](C)Cn1cnc2c(N)ncnc21)OCOC(=O)OC(C)C [tenofovir disoproxil fumarate]
inhibition against SARS-CoV-2 in the cell-based screen [1, 3]: no active compound was identified

CCC[C@H](NC(=O)[C@@H]1[C@H]2CCC[C@H]2CN1C(=O)[C@@H](NC(=O)[C@@H](NC(=O)c1cnccn1)C1CCCCC1)C(C)(C)C)C(=O)C(=O)NC1CC1 [Telaprevir]
inhibition against SARS-CoV-2 in the cell-based screen [1, 3]: none of these showed inhibition

CC(C)(C)OC(=O)N[C@H]1CCCCC/C=C\[C@@H]2C[C@@]2(C(=O)NS(=O)(=O)C2CC2)NC(=O)[C@@H]2C[C@@H](OC(=O)N3Cc4cccc(F)c4C3)CN2C1=O [danoprevir]
inhibition against SARS-CoV-2 in the cell-based screen [1, 3]: none of these showed inhibition

C=C1[C@H](CO)[C@@H](O)C[C@@H]1n1cnc2c(=O)[nH]c(N)nc21 [entecavir]
inhibition against SARS-CoV-2 in the cell-based screen [1, 3]: no active compound was identified

CC(C)Nc1cccnc1N1CCN(C(=O)c2cc3cc(NS(C)(=O)=O)ccc3[nH]2)CC1 [delavirdine]
inhibition against SARS-CoV-2 in the cell-based screen [1, 3]: no active compound was identified

CC[C@H]1CN2CCc3cc(OC)c(OC)cc3[C@@H]2C[C@@H]1C[C@H]1NCCc2cc(OC)c(OC)cc21 [Emetine 5, Emetine]
IC50 (SARS-CoV-2; [4]): 0.0004 µM
IC50 (SARS-CoV-2; [5]): 0.000397 µM
minimal effective concentration [1, 7]: 5 µM
minimal effective concentration [1, 8]: 10 µM
CC50 (in vitro; Vero E6 cells): > 10 µM

CC[C@H](CC[C@@H](C)[C@H]1CC[C@H]2[C@@H]3CC=C4C[C@@H](O[C@@H]5O[C@H](CO)[C@@H](O)[C@H](O)[C@H]5O)CC[C@]4(C)[C@H]3CC[C@]12C)C(C)C [daucosterol]
block of viral infection in the cell-based assay (α-glucosidase inhibitors) ([1]; Vero E6): none was able to efficiently block the viral infection

O=C1Nc2ccc(Cl)cc2[C@@](C#CC2CC2)(C(F)(F)F)O1 [efavirenz]
inhibition against SARS-CoV-2 in the cell-based screen [1, 3]: no active compound was identified

Nc1nc2c(ncn2CCC(CO)CO)c(=O)[nH]1 [penciclovir]
inhibition against SARS-CoV-2 in the cell-based screen [1, 3]: no active compound was identified

C[C@H]1O[C@H](O[C@H]2[C@H](O)[C@@H](O)[C@@H](O[C@H]3[C@H](O)[C@@H](O)C(O)O[C@@H]3CO)O[C@@H]2CO)[C@H](O)[C@@H](O)[C@@H]1N[C@H]1C=C(CO)[C@@H](O)[C@H](O)[C@H]1O (stereo partly shown) [acarbose]
block of viral infection in the cell-based assay (α-glucosidase inhibitors) ([1]; Vero E6): none was able to efficiently block the viral infection

CC(C)(C)NC(=O)[C@@H]1CN(Cc2cccnc2)CCN1C[C@@H](O)C[C@@H](Cc1ccccc1)C(=O)N[C@H]1c2ccccc2C[C@H]1O [indinavir sulfate]
inhibition against SARS-CoV-2 in the cell-based screen [1, 3]: none of these showed inhibition

CC(=O)OCC(CCn1cnc2cnc(N)nc21)COC(C)=O [famciclovir]
inhibition against SARS-CoV-2 in the cell-based screen [1, 3]: no active compound was identified

Cc1cccc(C)c1OCC(=O)N[C@@H](Cc1ccccc1)[C@@H](O)C[C@H](Cc1ccccc1)NC(=O)[C@H](C(C)C)N1CCCNC1=O [Lopinavir]
inhibition against SARS-CoV-2 in the cell-based screen [1, 3]: none of these showed inhibition

Cc1ccnc2c1NC(=O)c1cccnc1N2C1CC1 [nevirapine]
inhibition against SARS-CoV-2 in the cell-based screen [1, 3]: no active compound was identified

Cc1cn([C@@H]2C[C@@H](O)[C@H](CO)O2)c(=O)[nH]c1=O [telbivudine]
inhibition against SARS-CoV-2 in the cell-based screen [1, 3]: no active compound was identified

CC(C)CN(C[C@@H](O)[C@H](Cc1ccccc1)NC(=O)O[C@H]1CO[C@H]2OCC[C@H]21)S(=O)(=O)c1ccc(N)cc1 [darunavir]
inhibition against SARS-CoV-2 in the cell-based screen [1, 3]: none of these showed inhibition
